Read-outs that look alike come from different tables or passages of the source.

The target in data set [1] is human A2A receptor (A2AR) (Homo sapiens, UniProt P29274). The data set can be described thus: Luciferase reporter assay (HEK293-A2AR-luc2p/CRE/Hygro cells, 3 nM CGS21680). The data set is classed as cell-based. Particulars: 3 nM CGS21680, 5 h incubation. Summed up:
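Antagonist (0.1–10000 nM) and 3 nM CGS21680 were co-added for 5 h to stable HEK293-A2AR-luc2p/CRE cells, 18 h after seeding in 1% FBS medium containing adenosine deaminase. Luminescence was normalized to agonist alone (100%), and IC50 came from the dose–inhibition curve.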

The target in data set [2] is T1, human adenosine receptor A1 (A1R) (Homo sapiens, UniProt P30542).
T1 construct: host or cells: CHO cells (membrane homogenates)
T1 sequence (P30542 1-326): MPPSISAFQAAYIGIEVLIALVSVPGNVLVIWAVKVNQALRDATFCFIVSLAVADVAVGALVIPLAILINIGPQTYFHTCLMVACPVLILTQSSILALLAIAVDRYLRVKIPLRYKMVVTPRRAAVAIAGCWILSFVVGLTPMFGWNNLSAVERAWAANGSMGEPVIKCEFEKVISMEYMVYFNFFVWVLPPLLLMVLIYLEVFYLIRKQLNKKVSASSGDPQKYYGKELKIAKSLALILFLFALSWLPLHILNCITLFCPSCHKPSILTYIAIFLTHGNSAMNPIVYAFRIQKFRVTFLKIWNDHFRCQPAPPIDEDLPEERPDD
The data set can be described thus: Adenosine receptor binding assay, radioligand competitive binding, [3H]DPCPX. The settings on record: membrane homogenates from CHO cells transfected with A1R, 1 nM [3H]DPCPX. The method, then: (§1) Binding affinity of test compounds to four human adenosine receptors, A1, A2A, A2B and A3 was determined in radioligand competitive binding assay (conducted by Cerep, France) using following protocols. For A1 receptor (A1R), membrane homogenates from CHO cells transfected with A1R were incubated for 60 min at 22° C. with 1 nM [3H]DPCPX in the absence or presence of the test compound in a buffer containing 50 mM Tris-HCl (pH 7.4), 5 mM MgCl2, 1 mM EDTA/Tris and 2 UI/mL ADA. For A2AR, membrane homogenates from HEK293 cells transfected with A2AR were incubated for 120 min at 22° C. with 6 nM [3H]CGS21680 in the absence or presence of the test compound in a buffer containing 50 mM Tris-HCl (pH 7.4), 10 mM MgCl2, and 2 UI/mL ADA. For A2B receptor (A2BR), membrane homogenates from HEK293 cells transfected with A2BR were incubated for 60 min at 22° C. with 5 nM [3H]CPX in the absence or presence of the test compound in a buffer containing 10 mM Hepes/Tris (pH 7), 1 mM MgCl2, and 1 mM EDTA. For A3 receptor (A3R), membrane homogenates from HEK293 cells transfected with A3R were incubated for 120 min at 22° C. with 0.15 nM [125I]AB-MECA in the absence or presence of the test compound in a buffer containing 50 mM Tris-HCl (pH 7.4), 5 mM MgCl2, 1 mM EDTA and 2 UI/mL ADA. Nonspecific binding was determined in the presence of unlabeled 1 μM DPCPX, 10 μM NECA, 100 μM NECA, and 1 μM IB-MECA in A1R, A2AR, A2BR, A3R binding assays, respectively. Following incubation, the samples are rapidly filtered and washed with ice-cold 50 mM Tris-HCl. Then filters are dried and counted for radioactivity in a scintillation counter (Topcount, Packard) using a scintillation cocktail (Microscint 0, Packard). Duplicate experiments were performed for each assay. The results are expressed as a percent inhibition of control radioligand specific binding.

Data set [3] concerns the target T2, human adenosine receptor A2A (A2AR) (Homo sapiens, UniProt P29274).
T2 construct: host or cells: HEK293 cells (membrane homogenates)
The data set can be described thus: Adenosine receptor binding assay, radioligand competitive binding, [3H]CGS21680. The settings on record: membrane homogenates from HEK293 cells transfected with A2AR, 6 nM [3H]CGS21680. The method, then:
as §1

Another data set can be described thus: Mouse BBB assay. The data set is classed as in vivo. Particulars: oral 10 mg/kg. The method, then:
Mice were acclimated for 1 week prior to use at 18-30 g body weight. Fasted mice were dosed orally at 10 mg/kg dose. At 1, 2 and 4 hours postdose, plasma samples from cardiac blood collected in tubes containing K2EDTA as the anticoagulant, and excised cerebral hemispheres were immediately frozen and stored at −80° C. until bioanalysis. Total concentrations of the compound were determined by LC-MS/MS. Brain homogenate concentrations were converted to brain concentrations for the calculations of brain-to-plasma ratios.

T2 sequence (P29274 whole entry): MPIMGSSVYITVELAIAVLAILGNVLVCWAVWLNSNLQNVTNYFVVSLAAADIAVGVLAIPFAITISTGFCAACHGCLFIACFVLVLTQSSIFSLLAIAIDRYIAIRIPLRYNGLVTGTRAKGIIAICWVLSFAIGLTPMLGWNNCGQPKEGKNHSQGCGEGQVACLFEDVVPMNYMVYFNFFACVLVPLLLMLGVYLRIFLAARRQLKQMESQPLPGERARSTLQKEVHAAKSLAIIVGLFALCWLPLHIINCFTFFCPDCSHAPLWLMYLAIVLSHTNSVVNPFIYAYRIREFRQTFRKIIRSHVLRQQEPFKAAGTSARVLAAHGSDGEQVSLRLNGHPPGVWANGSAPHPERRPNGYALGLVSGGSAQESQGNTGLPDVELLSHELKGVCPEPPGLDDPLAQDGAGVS
human A2A receptor (A2AR), sequence (P29274 whole entry): as above

As to `CCCC(C(=O)N1CCN(c2ccc(OCCOC)cc2)CC1)n1ncc2c1nc(N)n1nc(-c3ccco3)nc21` (single isomer, unassigned) [Compound A5a, 2-(5-amino-2-(furan-2-yl)-7H-pyrazolo[4,3-e][1,2,4]triazolo[1,5-c]pyrimidin-7-yl)-1-(4-(4-(2-methoxyethoxy)phenyl)piperazin-1-yl)pentan-1-one], the 50% inhibitory concentration (IC50) in data set [1] stood at 2.2 nM. The Ki was determined as 160 nM in data set [2] and 1.7 nM in data set [3]. For the same molecule, the concentration at 1 h came to 5.1 ng/g in the data set “Mouse BBB assay” (brain, read-out: Brain) and 0.116 µg/mL in “Mouse BBB assay” (plasma, read-out: Plasma).

On to `CCCCC(C(=O)N1CCN(c2ccc(OCCOC)cc2)CC1)n1ncc2c1nc(N)n1nc(-c3ccco3)nc21` (single isomer, unassigned) [Compound A10a, 2-(5-amino-2-(furan-2-yl)-7H-pyrazolo[4,3-e][1,2,4]triazolo[1,5-c]pyrimidin-7-yl)-1-(4-(4-(2-methoxyethoxy)phenyl)piperazin-1-yl)hexan-1-one], for which the half-inhibitory concentration (IC50) in data set [1] turned out to be 2.7 nM. For the same molecule, the inhibitory constant (Ki) in data set [2] came to 120 nM; in data set [3] it was 2.3 nM. Besides, the concentration at 1 h stood at 20 ng/g in the data set “Mouse BBB assay” (brain, read-out: Brain) and 0.471 µg/mL in the data set “Mouse BBB assay” (plasma, read-out: Plasma).

In data set [1], `CCCC(C(=O)N1CCN(c2ccc(OCCOCCOC)cc2)CC1)n1ncc2c1nc(N)n1nc(-c3ccco3)nc21` (single isomer, unassigned) [Compound A6a, 2-(5-amino-2-(furan-2-yl)-7H-pyrazolo[4,3-e][1,2,4]triazolo[1,5-c]pyrimidin-7-yl)-1-(4-(4-(2-(2-methoxyethoxy)ethoxy)phenyl)piperazin-1-yl)pentan-1-one] came in with an IC50 of 5 nM. The Ki is 81 nM in data set [2] and 1.4 nM in data set [3]. Besides, the concentration at 1 h is 4.2 ng/g in the data set “Mouse BBB assay” (brain, read-out: Brain) and 0.173 µg/mL in the data set “Mouse BBB assay” (plasma, read-out: Plasma).

Regarding `COCCOc1ccc(N2CCN(C(=O)Cn3cc4c(nc(N)n5nc(-c6ccco6)nc45)n3)CC2)cc1` [Compound D2, 2-(5-amino-2-(furan-2-yl)-8H-pyrazolo[4,3-e][1,2,4]triazolo[1,5-c]pyrimidin-8-yl)-1-(4-(4-(2-methoxyethoxy)phenyl)piperazin-1-yl)ethan-1-one], in data set [1], the IC50 amounted to 66.8 nM. Further, the Ki stood at 0.81 nM in data set [2] and 2.8 nM in data set [3].

In the case of `COCCOc1ccc(N2CCN(C(=O)C(c3ccccc3)n3ncc4c3nc(N)n3nc(-c5ccco5)nc43)CC2)cc1` (single isomer, unassigned) [Compound A13b], the half-maximal inhibitory concentration (IC50) in data set [1] was 0.8 nM. Further, the Ki in data set [2] was found to be 42 nM; in data set [3], 0.92 nM. Also, the concentration at 1 h stood at 54 ng/g in the data set “Mouse BBB assay” (brain, read-out: Brain) and 2.44 µg/mL in “Mouse BBB assay” (plasma, read-out: Plasma).

For `Nc1nc2c(cnn2C(C(=O)N2CCc3ccccc3C2)c2ccccc2)c2nc(-c3ccco3)nn12` (single isomer, unassigned) [Compound B3b], in data set [1], the IC50 turned out to be 0.5 nM. For the same molecule, the inhibitory constant (Ki) turned out to be 150 nM in data set [2] and 0.89 nM in data set [3].

The record behind these values is US20210300936A1, “PYRAZOLOTRIAZOLOPYRIMIDINE DERIVATIVES AS A2A RECEPTOR ANTAGONIST” (BEIGENE, LTD., priority 2018, published 2021).
